The record followed here is ChEMBL document CHEMBL1147396, “A new antimalarial quassinoid from Simaba guianensis” (J Nat Prod, 1993).

Broadly, the IC50 is the concentration needed to halve the response being measured.

Converted amounts (≈) assume the structure as drawn.

Experiment [1] deals with Plasmodium falciparum. Put plainly: Antimalarial activity against mefloquine-resistant Plasmodium falciparum D6 (Sierra Leone) after 24 to 60 hrs by [G-H3]hypoxanthine uptake. In kind it is functional, organism-based.
Experiment [2] has as its system Plasmodium falciparum. As to the kind of experiment: Antimalarial activity against chloroquine-resistant Plasmodium falciparum Indochina W2 after 24 to 60 hrs by [G-H3]hypoxanthine uptake. Format: functional, organism-based.

`C[C@@H]1CC[C@H]2[C@@H](C)C(=O)O[C@@H]3O[C@@]4(C)CC[C@@H]1[C@]32OO4` [ARTEMISININ] displayed a half-inhibitory concentration (IC50) in experiment [1] of 2.1 ng/mL (≈ 7.44 nM). Regarding `CC(C)=CC(=O)O[C@H]1C(=O)O[C@@H]2C[C@H]3C(C)=CC(=O)[C@@H](O)[C@]3(C)[C@H]3[C@@H](O)[C@H](O)[C@]4(C)OC[C@]32[C@@H]14` [GUTOLACTONE], the values for the IC50 in experiment [2] and in experiment [1] were 4 ng/mL (≈ 8.39 nM) and 4.1 ng/mL (≈ 8.6 nM), respectively.

As for `OC(c1cc(C(F)(F)F)nc2c(C(F)(F)F)cccc12)C1CCCCN1` (configuration not stated) [MEFLOQUINE], the half-inhibitory concentration (IC50) in experiment [2] is 1.5 ng/mL (≈ 3.96 nM). As for `C=C[C@H]1CN2CC[C@H]1C[C@H]2[C@H](O)c1ccnc2ccc(OC)cc12` [QUININE], in experiment [2], the 50% inhibitory concentration (IC50) was 68.6 ng/mL (≈ 211 nM). This IC50 is about 46-fold higher than that of the compound before. Consider `CC[C@@H](C)C(=O)O[C@H]1C(=O)O[C@@H]2C[C@H]3C(C)=CC(=O)[C@@H](O)[C@]3(C)[C@H]3[C@@H](O)[C@H](O)[C@]4(C)OC[C@]32[C@@H]14` [SIMALIKALACTONE D], for which the IC50 in experiment [2] was determined as 1.6 ng/mL (≈ 3.34 nM); in experiment [1], 1.5 ng/mL (≈ 3.13 nM).
